Results reported in US12396458B2, “Fused ring substituted aromatic compound and preparation method therefor, herbicidal composition, and use thereof” (Qingdao Kingagroot Chemical Compound Co., Ltd., priority 2020, dated 2025).

Key:
Experiment in all cases: Weeding effect in post-emergence stage (greenhouse pot test)
Format in all cases: in vivo
[1] = test system: Conyza japonica; details: post-emergence, 3 weeks after application, fresh weight control rate
From the text: (§1) The activity level criteria for plant damage (i.e., growth control rate) are as follows:
(§2) Level 5: growth control rate is above 85%; • Level 4: growth control rate is greater than or equal to 60% and less than 85%; • Level 3: growth control rate is greater than or equal to 40% and less than 60%; • Level 2: growth control rate is greater than or equal to 20% and less than 40%; • Level 1: growth control rate is greater than or equal to 5% and less than 20%; • Level 0: growth control rate is less than 5%.
(§3) The above growth control rates are fresh weight control rates.
(§4) Experiment on weeding effect in post-emergence stage:
(§5) Monocotyledonous and dicotyledonous weed seeds (Descurainia sophia, Capsella bursa-pastoris, Abutilon theophrasti, Galium aparine, Stellaria media, Lithospermum arvense, Rorippa indica, Alopecurus aequalis, Alopecurus japonicus, Eleusine indica, Beckmannia syzigachne, Sclerochloa dura, Phleum paniculatum, Veronica didyma Tenore, Bromus japonicus, Aegilops tauschii, Phalaris arundinacea, Amaranthus retrojlexus, Chenopodiaceae, Commelina communis, Sonchus arvensis, convolvulus arvensis, Cirsium setosum, Solanum nigrum, Acalypha australis, Digitaria sanguinalis, Echinochloa crusgalli, Setaria viridis, Setaria glauca, Leptochloa chinensis, Monochoria vaginalis, Sagittaria trifolia, Scirpus juncoides, Cyperus rotundus, Cyperus iria, Cyperus difformis, Fimbristylis, Portulaca oleracea, Xanthium sibiricum, Pharbitis nil, Conyza japonica, etc.) and major crop seeds (wheat, corn, rice, soybean, cotton, oilseed rape, millet, sorghum, potato, sesame, ricinus, etc.) were placed in plastic pots filled with soil, then covered with 0.5-2 cm of soil, allowed to grow in a good greenhouse environment. After 2 weeks of sowing, the test plants were treated in the 2-3 leaf stage. The tested compounds of the present invention were respectively dissolved in acetone, then added with Tween 80 and 1.5 liter/ha of emulsifiable concentrate of methyl oleate as synergist, diluted with a certain amount of water to obtain a solution with a certain concentration, and sprayed with a spray tower onto the plants. After the application, the plants were cultured for 3 weeks in the greenhouse, and then the experimental results of the weeding were counted. The doses of the used compounds were 500, 250, 125, 60, 15, 7.5 g a.i./ha, and the averages were obtained by repeating for three times.

[2] = test system: Capsella bursa-pastoris; details: 3 weeks after application, fresh weight control rate
From the text: as §1, §2, §3, §4, §5

[3] = test system: Alopecurus japonicus; details: dose 15 g a.i./ha, 3 weeks after application, fresh weight control rate
From the text: as §1, §2, §3, §4, §5

Compound | Activity level (growth control rate), Capsella bursa-pastoris ([2]; dose 15 g a.i./ha) | Activity level (growth control rate), Capsella bursa-pastoris ([2]; dose 125 g a.i./ha) | further results
COC(=O)C12CCCC1C(c1cc(-n3c(=O)cc(C(F)(F)F)n(C)c3=O)c(F)cc1C(F)(F)F)=NO2 (stereo not shown) [Compound 211] | 5 (Level 5: growth control rate is above 85%) |  | Activity level (growth control rate), Conyza japonica ([1]; dose 15 g a.i./ha): 5 (Level 5: growth control rate is above 85%)
COC(=O)C12CCCC1C(c1cc(-n3c(=O)cc(C(F)(F)F)n(C)c3=O)c(F)cc1C#N)=NO2 (stereo not shown) [Compound 212] | 5 (Level 5: growth control rate is above 85%) |  | Activity level (growth control rate), Conyza japonica ([1]; dose 15 g a.i./ha): 5 (Level 5: growth control rate is above 85%)
Cn1c(C(F)(F)F)cc(=O)n(-c2cc(C3=NOC4(C(=O)OCc5ccccc5F)CCCC34)c(Cl)cc2F)c1=O (stereo not shown) [Compound 264] | 5 (Level 5: growth control rate is above 85%) |  | Activity level (growth control rate), Conyza japonica ([1]; dose 15 g a.i./ha): 4 (Level 4: growth control rate is greater than or equal to 60% and less than 85%)
CCSC(=O)C12CCCC1C(c1cc(-n3c(=O)cc(C(F)(F)F)n(C)c3=O)c(F)cc1Cl)=NO2 (stereo not shown) [Compound 334] | 5 (Level 5: growth control rate is above 85%) |  | Activity level (growth control rate), Conyza japonica ([1]; dose 15 g a.i./ha): 4 (Level 4: growth control rate is greater than or equal to 60% and less than 85%)
COC(=O)C12CCCC1(O)C(c1cc(-n3c(=O)cc(C(F)(F)F)n(C)c3=O)c(F)cc1Cl)=NO2 (stereo not shown) [Compound 351] |  |  | Activity level (growth control rate), Conyza japonica ([1]; dose 15 g a.i./ha): 4 (Level 4: growth control rate is greater than or equal to 60% and less than 85%)
COC(=O)C12CCCCC1C(c1cc(-n3c(=O)cc(C(F)(F)F)n(C)c3=O)c(F)cc1Cl)=NO2 (stereo not shown) [Compound 370] |  | 5 (Level 5: growth control rate is above 85%) | 
COC(=O)C12CSCC1C(c1cc(-n3c(=O)cc(C(F)(F)F)n(C)c3=O)c(F)cc1Cl)=NO2 (stereo not shown) [Compound 374] |  | 5 (Level 5: growth control rate is above 85%) | Activity level (growth control rate), Conyza japonica ([1]; dose 125 g a.i./ha): 5 (Level 5: growth control rate is above 85%)
COC(=O)C12CCCC1C(c1cc(-n3c(=O)n(C)c(=S)n(C)c3=S)c(F)cc1Cl)=NO2 (stereo not shown) [Compound 395] |  | 5 (Level 5: growth control rate is above 85%) | 
COC(=O)C12CCCCCC1C(c1cc(-n3c(=O)cc(C(F)(F)F)n(C)c3=O)c(F)cc1Cl)=NO2 (stereo not shown) [Compound 435] | 5 (Level 5: growth control rate is above 85%) |  | 
COC(=O)C12CCCC1C(c1cc(-n3c(=O)cc(C(F)(F)F)n(C)c3=O)c(Cl)cc1Cl)=NO2 (stereo not shown) [Compound 440] | 5 (Level 5: growth control rate is above 85%) |  | 
COC(=O)C12CCC(O)C1C(c1cc(-n3c(=O)cc(C(F)(F)F)n(C)c3=O)c(F)cc1Cl)=NO2 (stereo not shown) [Compound 444] | 5 (Level 5: growth control rate is above 85%) |  | Activity level (growth control rate), Alopecurus japonicus [3]: 4 (Level 4: growth control rate is greater than or equal to 60% and less than 85%)
COC(=O)C12CC(C)CC1C(c1cc(-n3c(=O)cc(C(F)(F)F)n(C)c3=O)c(F)cc1Cl)=NO2 (stereo not shown) [Compound 456] | 5 (Level 5: growth control rate is above 85%) |  | Activity level (growth control rate), Conyza japonica ([1]; dose 15 g a.i./ha): 4 (Level 4: growth control rate is greater than or equal to 60% and less than 85%)
COC(=O)C1CC2C(c3cc(-n4c(=O)cc(C(F)(F)F)n(C)c4=O)c(F)cc3Cl)=NOC2(C(=O)OC)C1 (stereo not shown) [Compound 464] | 5 (Level 5: growth control rate is above 85%) |  | Activity level (growth control rate), Alopecurus japonicus [3]: 5 (Level 5: growth control rate is above 85%)
CCOC(=O)C12ON=C(c3cc(-n4c(=O)cc(C(F)(F)F)n(C)c4=O)c(F)cc3Cl)C1CCC2F (stereo not shown) [Compound 472] | 5 (Level 5: growth control rate is above 85%) |  | Activity level (growth control rate), Conyza japonica ([1]; dose 15 g a.i./ha): 4 (Level 4: growth control rate is greater than or equal to 60% and less than 85%)
CCOC(=O)C12ON=C(c3cc(-n4c(=O)cc(C(F)(F)F)n(C)c4=O)c(F)cc3Cl)C1CCC2=NO (stereo not shown) [Compound 491] | 5 (Level 5: growth control rate is above 85%) |  | 
COC(=O)C12CCCC1C(c1cc(-n3c(=O)cc(C(F)(F)F)n(C)c3=S)c(F)cc1Cl)=NO2 (stereo not shown) [Compound 497] | 5 (Level 5: growth control rate is above 85%) |  | 
COC(=O)C12CCCC1C(c1cc(N3C(=O)CC(=C(C)C)C3=O)c(F)cc1Cl)=NO2 (stereo not shown) [Compound 544] |  | 5 (Level 5: growth control rate is above 85%) | 

Compound | Activity level (growth control rate), Capsella bursa-pastoris ([2]; dose 15 g a.i./ha) | Activity level (growth control rate), Capsella bursa-pastoris ([2]; dose 125 g a.i./ha) | further results
COC(=O)C12CCCC1C(c1cc(N3C(=O)C4CCCCC4C3=O)c(F)cc1Cl)=NO2 (stereo not shown) [Compound 545] |  | 5 (Level 5: growth control rate is above 85%) | 
O=C1C2CC=CCC2C(=O)N1c1cc(C2=NOC3(C(=O)O)CCCC23)c(Cl)cc1F (stereo not shown) [Compound 546] |  | 5 (Level 5: growth control rate is above 85%) | 
COC(=O)C12CCCC1C(c1cc(N3C(=O)CC(C)CC3=O)c(F)cc1Cl)=NO2 (stereo not shown) [Compound 547] |  | 5 (Level 5: growth control rate is above 85%) | 
COC(=O)C12CCCC1C(c1cc(-n3c(=O)c4ccccc4n(C)c3=O)c(F)cc1Cl)=NO2 (stereo not shown) [Compound 551] |  | 5 (Level 5: growth control rate is above 85%) | 
CCCN1C(=O)C(=O)N(c2cc(C3=NOC4(C(=O)OC)CCCC34)c(Cl)cc2F)C1=S (stereo not shown) [Compound 552] |  | 5 (Level 5: growth control rate is above 85%) | 
CCCNC(=O)C12CCCC1C(c1cc(N3C(=O)C(=O)N(CCC)C3=S)c(F)cc1Cl)=NO2 (stereo not shown) [Compound 553] | 5 (Level 5: growth control rate is above 85%) |  | 
COC(=O)C12CCCC1C(c1cc(-n3nc4n(c3=O)CCCC4)c(F)cc1Cl)=NO2 (stereo not shown) [Compound 561] |  | 5 (Level 5: growth control rate is above 85%) | 
COC(=O)C12CCCC1C(c1cc(/N=c3\scc(C(F)(F)F)n3C)c(F)cc1Cl)=NO2 (stereo not shown) [Compound 574] | 5 (Level 5: growth control rate is above 85%) |  | Activity level (growth control rate), Conyza japonica ([1]; dose 15 g a.i./ha): 5 (Level 5: growth control rate is above 85%)
COC(=O)C12CCCC1C(c1cc(-c3nnc(C(F)(F)F)cc3O)c(F)cc1Cl)=NO2 (stereo not shown) [Compound 577] |  | 5 (Level 5: growth control rate is above 85%) | Activity level (growth control rate), Conyza japonica ([1]; dose 125 g a.i./ha): 5 (Level 5: growth control rate is above 85%)
COC(=O)C12CCCC1C(c1cc(-c3nn(C)c(C(F)(F)F)cc3=O)c(F)cc1Cl)=NO2 (stereo not shown) [Compound 579] | 5 (Level 5: growth control rate is above 85%) |  | Activity level (growth control rate), Alopecurus japonicus [3]: 4 (Level 4: growth control rate is greater than or equal to 60% and less than 85%)
COC(=O)C12CCCC1C(c1cc(-c3ncc(S(C)(=O)=O)cc3Cl)c(F)cc1Cl)=NO2 (stereo not shown) [Compound 584] |  | 5 (Level 5: growth control rate is above 85%) | Activity level (growth control rate), Conyza japonica ([1]; dose 125 g a.i./ha): 5 (Level 5: growth control rate is above 85%)
COC(=O)C12CCCC1C(c1cc(-c3ncc(C(F)(F)F)c(C)c3Cl)c(F)cc1Cl)=NO2 (stereo not shown) [Compound 586] |  | 5 (Level 5: growth control rate is above 85%) | Activity level (growth control rate), Conyza japonica ([1]; dose 125 g a.i./ha): 5 (Level 5: growth control rate is above 85%)
COC(=O)C12CCCC1C(c1cc(-c3cc(C(F)(F)F)n(C)c3)c(F)cc1Cl)=NO2 (stereo not shown) [Compound 587] |  | 5 (Level 5: growth control rate is above 85%) | 
COC(=O)C12CCCC1C(c1cc(-c3c(Cl)c(C(F)(F)F)n(C)c3Cl)c(F)cc1Cl)=NO2 (stereo not shown) [Compound 588] |  | 5 (Level 5: growth control rate is above 85%) | 
COC(=O)C12CCCC1C(c1cc(-c3cc(C(F)(F)F)nn3C)c(F)cc1Cl)=NO2 (stereo not shown) [Compound 589] |  | 5 (Level 5: growth control rate is above 85%) | 
COC(=O)C12CCCC1C(c1cc(-c3c(Br)c(C(F)(F)F)nn3C)c(F)cc1Cl)=NO2 (stereo not shown) [Compound 590] |  | 5 (Level 5: growth control rate is above 85%) | 
COC(=O)C12CCCC1C(c1cc(NC(=O)C3=C(C(=O)O)CCCC3)c(F)cc1Cl)=NO2 (stereo not shown) [Compound 597] | 5 (Level 5: growth control rate is above 85%) |  | Activity level (growth control rate), Conyza japonica ([1]; dose 15 g a.i./ha): 4 (Level 4: growth control rate is greater than or equal to 60% and less than 85%)
